{"source": "patent US10881110B2", "about": "“Herbicidal compositions comprising isoxazolo[5,4-b]pyridines” (BASF SE, priority 2014, dated 2021)", "assay_in_all_cases": "greenhouse post-emergence herbicidal test", "key": {"[1]": {"test_system": "APESV", "assay_type": "in vivo, Apera spica-venti", "design": "key to herbicidal activity against APESV found: rating on a scale from 0 to 100", "conditions": "post emergence", "outline": "(§1)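 Each species was sown separately, grown to a height of 1 to 15 cm and then sprayed with water-dispersed components A, B and where relevant C. Growth conditions were 10-25° C or 20-35° C, and percent damage was recorded at 20 days.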"}, "[2]": {"test_system": "LAMAM", "assay_type": "in vivo, Lamium amplexicaule", "design": "key: scale 0 to 100", "protocol": "(§2) The culture containers used were plastic pots containing medium loamy sand with approximately 4.6% of humus and 69.9% sand as substrate. The seeds of the test plants were sown separately for each species.\n(§3) For the post-emergence treatment, the test plants were grown to a plant height of from 1 to 15 cm, depending on the plant habit, and only then treated with the active compounds which had been suspended or emulsified in water. To this end, the test plants were either sown directly, and grown in the same containers, or they were first grown separately as seedlings and transplanted into the test containers a few days prior to treatment.\n(§4) Depending on the species, the plants were kept at 10-25° C. and 20-35° C., respectively.\n(§5) The test period extended over 1 to 3 weeks. During this time, the plants were tended and their response to the individual treatments was evaluated 20 days after treatment except mentioned otherwise.\n(§6) Evaluation was carried out using a scale from 0 to 100. 100 means no emergence of the plants, or complete destruction of at least the above-ground parts, and 0 means no damage or normal course of growth.\n(§7) The respective stated components A and B, and, if appropriate, C, were formulated as a 10% by weight strength emulsion concentrate and, with addition of the amount of solvent system, introduced into the spray liquor used for applying the active compound. In the examples, the solvent used was water.\n(§8) In the examples below, using the method of S. R. Colby (1967) “Calculating synergistic and antagonistic responses of herbicide combinations”, Weeds 15, p. 22 ff., the value E, which is expected if the activity of the individual active compounds is only additive, was calculated. E=X+Y−(X·Y/100)"}, "[3]": {"test_system": "GERDI", "assay_type": "in vivo, Geranium dissectum", "design": "key to herbicidal activity against GERDI found: rating on a scale from 0 to 100", "conditions": "post emergence", "outline": "as §1"}, "[4]": {"test_system": "DIGSA", "assay_type": "in vivo, Digitaria sanguinalis", "protocol": "as §2, §3, §4, §5, §6, §7, §8"}, "[5]": {"conditions": "g/ha a.i.: I.1 62.5, B.52 2.5, mixture 62.5+2.5"}, "[6]": {"conditions": "g/ha a.i.: I.1 125, B.52 2.5, mixture 125+2.5"}, "[7]": {"conditions": "application rate a.i.: I.1 62.5 g/ha, B.87 (carfentrazone-ethyl) 1.75 g/ha, alone or as mixture (composition 1.87)"}, "[8]": {"conditions": "application rate a.i.: I.1 250 g/ha, B.193 15 g/ha, alone or as mixture (composition 1.193)"}}, "note": "Where two headings read alike, the source gives them in different places."}
{"smiles": "O=C(O)c1cc(C2CC2)nc2onc(C3CC3)c12", "note": "[I.1]", "values": [{"measurement": "herbicidal activity against APESV found", "setting": "[1]; applied alone at 125 g/ha a.i.", "result": 15}, {"measurement": "herbicidal activity against APESV found", "setting": "[1]; g/ha a.i.: I.1 31.25, B.24 1, mixture 31.25+1", "result": 20}, {"measurement": "herbicidal activity against APESV found", "setting": "[1]; g/ha a.i.: I.1 62.5, B.20 4, mixture 62.5+4", "result": 20}, {"measurement": "herbicidal activity against APESV found", "setting": "[1]; [5]", "result": 20}, {"measurement": "herbicidal activity against APESV found", "setting": "[1]; [6]", "result": 35}, {"measurement": "herbicidal activity against LAMAM, found", "setting": "[2]; 31.25 g/ha a.i.", "result": 70}, {"measurement": "herbicidal activity against LAMAM, found", "setting": "[2]; application rate a.i.: I.1 31.25 g/ha, B.139 (pyroxasulfone) 25 g/ha, alone or as mixture (composition 1.139)", "result": 80}, {"measurement": "herbicidal activity against LALAM, found", "setting": "[2]; application rate a.i.: I.1 31.25 g/ha, B.87 (carfentrazone-ethyl) 1.75 g/ha, alone or as mixture (composition 1.87)", "result": 70}, {"measurement": "herbicidal activity against LAMAM, found", "setting": "[2]; [7]", "result": 85}, {"measurement": "pest or weed control at 62.5 g/ha", "setting": "[3]; Geranium dissectum, post-emergence, 480 h, 62.5 g/ha a.i., read-out: herbicidal activity against GERDI found", "result": 90, "unit": "%"}, {"measurement": "pest or weed control at 31.25 g/ha", "setting": "[3]; Geranium dissectum, post-emergence, 480 h, I.1 31.25 g/ha a.i., read-out: herbicidal activity against GERDI found", "result": 50, "unit": "%"}, {"measurement": "pest or weed control at 62.5 g/ha", "setting": "[3]; Geranium dissectum, post-emergence, 480 h, I.1 62.5 g/ha a.i., read-out: herbicidal activity against GERDI found", "result": 55, "unit": "%"}, {"measurement": "pest or weed control at 15.625 g/ha", "setting": "[3]; Geranium dissectum, post-emergence, 480 h, single active, 15.625 g/ha a.i., read-out: herbicidal activity against GERDI found", "result": 0, "unit": "%"}, {"measurement": "pest or weed control at 31.25 g/ha", "setting": "[3]; Geranium dissectum, post-emergence, 480 h, single active, 31.25 g/ha a.i., read-out: herbicidal activity against GERDI found", "result": 10, "unit": "%"}, {"measurement": "pest or weed control at 62.5 g/ha", "setting": "[3]; Geranium dissectum, post-emergence, 480 h, single active, 62.5 g/ha a.i., read-out: herbicidal activity against GERDI found", "result": 60, "unit": "%"}, {"measurement": "pest or weed control at 125 g/ha", "setting": "[3]; Geranium dissectum, post-emergence, 480 h, single active, 125 g/ha a.i., read-out: herbicidal activity against GERDI found", "result": 70, "unit": "%"}, {"measurement": "herbicidal activity against GERDI found", "setting": "[3]; I.1 15.6 g/ha, B.103 7.5 g/ha a.i.", "result": 0}, {"measurement": "herbicidal activity against GERDI found", "setting": "[3]; I.1 15.62 g/ha, B.89 25 g/ha a.i.", "result": 0}, {"measurement": "herbicidal activity against GERDI found", "setting": "[3]; I.1 31.25 g/ha, B.103 7.5 g/ha a.i.", "result": 30}, {"measurement": "herbicidal activity against GERDI found", "setting": "[3]; I.1 31.25 g/ha, B.103 15 g/ha a.i.", "result": 30}, {"measurement": "herbicidal activity against GERDI found", "setting": "[3]; I.1 62.5 g/ha, B.103 7.5 g/ha a.i.", "result": 60}, {"measurement": "herbicidal activity against GERDI found", "setting": "[3]; I.1 62.5 g/ha, B.103 15 g/ha a.i.", "result": 60}, {"measurement": "herbicidal activity against GERDI found", "setting": "[3]; I.1 62.5 g/ha, B.167 125 g/ha a.i.", "result": 60}, {"measurement": "herbicidal activity against GERDI found", "setting": "[3]; I.1 62.5 g/ha, B.88 1 g/ha a.i.", "result": 0}, {"measurement": "herbicidal activity against GERDI found", "setting": "[3]; I.1 62.5 g/ha, B.88 2 g/ha a.i.", "result": 0}, {"measurement": "herbicidal activity against GERDI found", "setting": "[3]; I.1 62.5 g/ha, B.89 12.5 g/ha a.i.", "result": 0}, {"measurement": "herbicidal activity against GERDI found", "setting": "[3]; I.1 62.5 g/ha, B.89 25 g/ha a.i.", "result": 0}, {"measurement": "herbicidal activity against GERDI found", "setting": "[3]; I.1 62.5 g/ha, B.95 1 g/ha a.i.", "result": 0}, {"measurement": "herbicidal activity against GERDI found", "setting": "[3]; I.1 62.5 g/ha, B.95 2 g/ha a.i.", "result": 0}, {"measurement": "herbicidal activity against GERDI found", "setting": "[3]; a.i. g/ha: I.1 7.8, B.67 125, 20 days after treatment", "result": 0, "unit": "%"}, {"measurement": "herbicidal activity against GERDI found", "setting": "[3]; a.i. g/ha: I.1 15.6, B.67 125, 20 days after treatment", "result": 0, "unit": "%"}, {"measurement": "herbicidal activity against GERDI found", "setting": "[3]; a.i. g/ha: I.1 31.25, B.190 62.5, 20 days after treatment", "result": 30, "unit": "%"}, {"measurement": "herbicidal activity against GERDI found", "setting": "[3]; a.i. g/ha: I.1 31.25, B.67 125, 20 days after treatment", "result": 30, "unit": "%"}, {"measurement": "herbicidal activity against GERDI found", "setting": "[3]; a.i. g/ha: I.1 31.25, B.67 125, 20 days after treatment, sub-table r36-r43", "result": 30, "unit": "%"}, {"measurement": "herbicidal activity against GERDI found", "setting": "[3]; a.i. g/ha: I.1 62.5, B.67 125, 20 days after treatment", "result": 40, "unit": "%"}, {"measurement": "herbicidal activity against GERDI found", "setting": "[3]; application rate a.i.: I.1 31.25 g/ha, B.100 (isoxaflutole) 12.5 g/ha, alone or as mixture (composition 1.100)", "result": 60}, {"measurement": "herbicidal activity against GERDI found", "setting": "[3]; application rate a.i.: I.1 31.25 g/ha, B.40 (imazethapyr) 7.5 g/ha, alone or as mixture (composition 1.40)", "result": 30}, {"measurement": "herbicidal activity against GERDI found", "setting": "[3]; application rate a.i.: I.1 62.5 g/ha, B.100 (isoxaflutole) 12.5 g/ha, alone or as mixture (composition 1.100)", "result": 65}, {"measurement": "herbicidal activity against GERDI found", "setting": "[3]; application rate a.i.: I.1 62.5 g/ha, B.30 (imazamox) 3.75 g/ha, alone or as mixture (composition 1.030)", "result": 85}, {"measurement": "herbicidal activity against GERDI found", "setting": "[3]; application rate a.i.: I.1 62.5 g/ha, B.40 (imazethapyr) 7.5 g/ha, alone or as mixture (composition 1.40)", "result": 70}, {"measurement": "herbicidal activity against GERDI found", "setting": "[3]; [7]", "result": 85}, {"measurement": "herbicidal activity against GERDI found", "setting": "[3]; application rate a.i.: I.1 125 g/ha, B.113 (glyphosate) 135 g/ha, alone or as mixture (composition 1.113)", "result": 80}, {"measurement": "herbicidal activity against GERDI found", "setting": "[3]; [8]", "result": 95}, {"measurement": "herbicidal activity against GERDI found", "setting": "[3]; applied alone at 31.25 g/ha a.i.", "result": 65}, {"measurement": "herbicidal activity against GERDI found", "setting": "[3]; g/ha a.i.: I.1 31.25, B.52 2.5, mixture 31.25+2.5", "result": 50}, {"measurement": "herbicidal activity against GERDI found", "setting": "[3]; [5]", "result": 65}, {"measurement": "herbicidal activity against GERDI found", "setting": "[3]; [6]", "result": 65}, {"measurement": "herbicidal activity against DIGSA found", "setting": "[4]; a.i. g/ha: I.1 31.25, B.76 225, 20 days after treatment", "result": 35, "unit": "%"}, {"measurement": "herbicidal activity against DIGSA found", "setting": "[4]; a.i. g/ha: I.1 62.5, B.76 225, 20 days after treatment", "result": 40, "unit": "%"}, {"measurement": "herbicidal activity against DIGSA found", "setting": "[4]; a.i. g/ha: I.1 62.5, B.80 250, 20 days after treatment", "result": 40, "unit": "%"}, {"measurement": "herbicidal activity against DIGSA found", "setting": "[4]; [8]", "result": 35}]}
